Tests used:
Format in all cases: cell-based
Conditions in all cases: checkerboard
[1] = test system: A. baumannii B2026
Procedure: (§1) For the synergy test, standard checkerboard broth microdilution assays were conducted to test the synergistic effect of combined antimicrobials using the same condition as before[51],[56]. […] The initial concentration of both peptides was their individual MIC. 50 µL fresh bacterial suspension prepared as above was added to the wells already containing the antimicrobial compound mixture to achieve 100 µL final volume per well.
(§2) The fractional inhibitory concentration (FIC) indices[57] were calculated using the formula FICI = FICa + FICb = MICac/MICa + MICbc/MICb, to determine whether the combination is additive, synergistic or antagonistic[51],[57]. The MICa and MICb is the MIC of compound A or B alone, respectively. MICac is the MIC of compound A in combination with compound B and MICbc is the MIC of compound B when it was combined with compound A. The FIC corresponds to the MIC of a compound in combination with the other compound, divided by the MIC of the compound alone. FICa is FIC of compound A while FICb is FIC of compound B. The FICI was interpreted according to EUCAST[58] as follows: synergistic, FICI ≤ 0.5; additive,0.5 < FICI ≤ 1; indifferent, 1 < FICI < 2; antagonistic, FICI ≥ 2.

[2] = test system: E. coli B1927
Procedure: as §1, §2

[3] = test system: A. baumannii ATCC BAA-1605
Procedure: as §1, §2

[4] = test system: K. pneumoniae ATCC BAA-2524
Procedure: as §1, §2

[5] = test system: P. aeruginosa ATCC 27853
Procedure: as §1, §2

[6] = test system: E. coli ATCC 25922
Procedure: as §1, §2

[7] = test system: E. coli ATCC BAA-2452
Procedure: as §1, §2

CN[C@H](CC(C)C)C(=O)N[C@H]1C(=O)N[C@@H](CC(N)=O)C(=O)N[C@H]2C(=O)N[C@H]3C(=O)N[C@H](C(=O)N[C@H](C(=O)O)c4cc(O)cc(O)c4-c4cc3ccc4O)[C@H](O)c3ccc(c(Cl)c3)Oc3cc2cc(c3O[C@@H]2O[C@H](CO)[C@@H](O)[C@H](O)[C@H]2O[C@H]2C[C@](C)(N)[C@H](O)[C@H](C)O2)Oc2ccc(cc2Cl)[C@H]1O [Vancomycin]
MICAB: MIC of vancomycin in combination with D-11 at the MICAC concentration [1]: 2.76 µM
MICAB: MIC of vancomycin in combination with D-11 at the MICAC concentration [2]: 5.52 µM
MICAB: MIC of vancomycin in combination with D-11 at the MICAC concentration [3]: 2.76 µM
MICAB: MIC of vancomycin in combination with D-11 at the MICAC concentration [4]: 11.04 µM
MICAB: MIC of vancomycin in combination with D-11 at the MICAC concentration [5]: 11.04 µM
MICAB: MIC of vancomycin in combination with D-11 at the MICAC concentration [6]: 5.52 µM
MICAB: MIC of vancomycin in combination with D-11 at the MICAC concentration [7]: 2.76 µM
